Results published in PMC3265359 (Biochemical Journal, 2010).
Read-outs that look alike come from different tables or passages of the source.

Key:
QR2 [1] = target: T1, QR2 (Homo sapiens, UniProt P16083); experiment: QR2 steady-state kinetics; type: biochemical; settings: for Ki: read-out: QR2 Ki, Table 1 value; for Inhibition of QR2: up to 100 μM compound, 5 nM QR2, 100 μM NMeH, 30 μM menadione
T1 sequence (P16083 1-231): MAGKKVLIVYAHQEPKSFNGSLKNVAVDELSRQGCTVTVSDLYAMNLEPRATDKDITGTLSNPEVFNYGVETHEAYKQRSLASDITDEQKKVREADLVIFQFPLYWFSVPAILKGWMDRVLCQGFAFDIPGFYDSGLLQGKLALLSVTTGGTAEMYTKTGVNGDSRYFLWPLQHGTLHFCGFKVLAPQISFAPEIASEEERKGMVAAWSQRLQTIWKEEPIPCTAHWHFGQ

COX-1 = target: T2, COX-1 (Ovis aries, UniProt P05979); experiment: Inhibition of COX-1 activity by quantification of PGE2; type: biochemical
T2 sequence (P05979 25-600): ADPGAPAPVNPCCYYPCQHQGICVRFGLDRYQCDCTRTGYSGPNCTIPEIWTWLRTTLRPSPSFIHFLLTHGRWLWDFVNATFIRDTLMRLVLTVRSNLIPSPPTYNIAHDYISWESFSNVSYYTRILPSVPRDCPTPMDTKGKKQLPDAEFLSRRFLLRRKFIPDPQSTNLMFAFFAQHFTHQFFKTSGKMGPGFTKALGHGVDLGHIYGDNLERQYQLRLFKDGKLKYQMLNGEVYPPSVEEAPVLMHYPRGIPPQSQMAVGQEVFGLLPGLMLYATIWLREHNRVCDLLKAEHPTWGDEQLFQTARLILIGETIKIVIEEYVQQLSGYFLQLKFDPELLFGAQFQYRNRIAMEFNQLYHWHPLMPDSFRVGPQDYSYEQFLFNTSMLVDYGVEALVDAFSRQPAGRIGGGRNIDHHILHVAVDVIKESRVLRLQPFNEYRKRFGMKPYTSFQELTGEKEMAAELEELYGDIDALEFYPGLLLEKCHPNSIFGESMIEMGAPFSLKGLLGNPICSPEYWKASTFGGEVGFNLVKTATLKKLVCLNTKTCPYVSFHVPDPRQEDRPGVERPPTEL

QR1 = experiment: Effect of resveratrol on QR1 activity in Hepa 1c1c7 cells; type: cell-based; settings: Hepa 1c1c7 mouse hepatoma cells, 48 h
QR2 [2] = target: T1, QR2; experiment: ITC titration of resveratrol into QR2; type: binding
SIRT1 = target: T3, SIRT1 (Homo sapiens, UniProt Q96EB6); experiment: ITC titration of resveratrol into SIRT1; type: binding; settings: 20 μM SIRT1, no substrates
T3 sequence (Q96EB6 1-747): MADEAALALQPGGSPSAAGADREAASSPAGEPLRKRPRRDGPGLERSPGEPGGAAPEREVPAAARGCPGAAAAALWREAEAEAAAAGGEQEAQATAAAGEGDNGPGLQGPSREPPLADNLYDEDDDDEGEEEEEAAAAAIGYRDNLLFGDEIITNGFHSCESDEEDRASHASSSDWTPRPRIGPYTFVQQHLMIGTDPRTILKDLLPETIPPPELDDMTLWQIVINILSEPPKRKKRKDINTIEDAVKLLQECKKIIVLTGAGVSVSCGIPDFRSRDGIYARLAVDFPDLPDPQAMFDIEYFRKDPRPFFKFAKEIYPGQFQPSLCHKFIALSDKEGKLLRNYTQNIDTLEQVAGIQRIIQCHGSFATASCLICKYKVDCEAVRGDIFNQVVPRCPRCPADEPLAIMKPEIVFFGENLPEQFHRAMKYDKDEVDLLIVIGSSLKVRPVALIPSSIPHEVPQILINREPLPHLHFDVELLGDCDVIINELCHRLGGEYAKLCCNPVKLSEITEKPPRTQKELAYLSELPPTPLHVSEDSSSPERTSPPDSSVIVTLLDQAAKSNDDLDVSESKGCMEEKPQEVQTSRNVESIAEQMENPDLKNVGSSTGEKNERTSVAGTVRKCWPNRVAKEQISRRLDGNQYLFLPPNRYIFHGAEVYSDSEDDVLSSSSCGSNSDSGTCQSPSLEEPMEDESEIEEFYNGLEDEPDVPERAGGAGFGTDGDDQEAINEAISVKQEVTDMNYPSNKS

COX-2 = target: T4, COX-2 (Homo sapiens, UniProt P35354); experiment: Inhibition of COX-2 activity by quantification of PGE2; type: biochemical
T4 sequence (P35354 18-604): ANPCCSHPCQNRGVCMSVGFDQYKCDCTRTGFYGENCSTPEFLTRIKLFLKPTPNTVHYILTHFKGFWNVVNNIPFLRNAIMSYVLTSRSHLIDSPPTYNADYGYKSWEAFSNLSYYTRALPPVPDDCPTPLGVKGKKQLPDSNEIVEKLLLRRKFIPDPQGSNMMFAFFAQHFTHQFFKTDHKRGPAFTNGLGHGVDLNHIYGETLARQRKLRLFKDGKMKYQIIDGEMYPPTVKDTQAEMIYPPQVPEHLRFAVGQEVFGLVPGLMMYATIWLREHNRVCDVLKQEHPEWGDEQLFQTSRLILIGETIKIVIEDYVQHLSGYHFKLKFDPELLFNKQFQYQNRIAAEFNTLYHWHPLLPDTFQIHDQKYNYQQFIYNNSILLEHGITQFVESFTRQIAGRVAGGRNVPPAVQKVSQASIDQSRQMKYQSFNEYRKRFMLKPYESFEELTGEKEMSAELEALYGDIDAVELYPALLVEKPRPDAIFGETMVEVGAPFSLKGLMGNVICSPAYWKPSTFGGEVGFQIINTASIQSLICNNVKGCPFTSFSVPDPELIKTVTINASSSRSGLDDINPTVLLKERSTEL

[3] = after an oral dose of pure resveratrol; cited from earlier work

IC50 (COX-1; read-out: COX-1 IC50, PGE2 produced from arachidonic acid) [µM] | Structure (SMILES) | QR2 Ki, uncompetitive against menadione (QR2 [1]; varied menadione, NMeH 100 μM) [µM] | IC50 (COX-1) [µM] | Effect on QR1 activity (QR1) | ΔH of binding to QR2 (QR2 [2]) | TΔS of binding to QR2 (QR2 [2]; as printed in Figure 6 legend) [kcal/mol] | N (ITC binding stoichiometry, QR2) (QR2 [2]; single binding site model) | Binding to SIRT1 by ITC (SIRT1) | Ki (QR2 [1]) [µM] | Inhibition of QR2 (QR2 [1]) | IC50 (COX-2) [µM] | Human plasma concentration [3] [µM]
– | Oc1ccc(/C=C/c2cc(O)cc(O)c2)cc1 [Resveratrol, 3,5, 4′-trans-trihydroxystilbene] | 0.9 ± 0.1 | 1.1 ± 0.44 | only a weak activator | –14 kcal/mol | 3.9 | 0.9 | no detectable change in heat | – | – | – | –
150 ± 5.8 | O=C(O)[C@H]1O[C@@H](Oc2cc(O)cc(/C=C/c3ccc(O)cc3)c2)[C@H](O)[C@@H](O)[C@@H]1O [Resveratrol-3-O-glucuronide, resveratrol-3-O-glucuronide] | – | – | – | – | – | – | – | – | – | – | –
– | O=S(=O)(O)Oc1cc(O)cc(C=Cc2ccc(O)cc2)c1 [Resveratrol-3-O-sulfate, resveratrol-3-O-sulfate] | – | 68 ± 2.8 | – | – | – | – | – | > 100 | cannot detect any inhibitory activity | > 300 | –
– | O=S(=O)(O)Oc1ccc(C=Cc2cc(O)cc(O)c2)cc1 [Resveratrol-4′-O-sulfate, resveratrol-4′-O-sulfate] | – | 5.1 ± 0.55 | – | – | – | – | – | > 100 | cannot detect any inhibitory activity | 2.5 ± 0.35 | 2 to 10
